Inconclusive results and toxic doses are left out.
Test system: BDF1 mice, P388 leukemia ip, median survival T/C
Assay: NCI In Vivo Anticancer Drug Screen. Data for tumor model P388 Leukemia (intraperitoneal) in B6D2F1 (BDF1) mice
Conditions: endpoint: median survival time, higher = longer survival
How it was run: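 Survival ratio, drug arm over vehicle arm, in mice with a transplanted tumour.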

[1] = dose: 50.0 mg/kg/injection, schedule: Q01DX009 (ip), vehicle: Klucel (hydroxypropylcellulose) (HPC)
[2] = dose: 100.0 mg/kg/injection, schedule: Q04DX003 (ip), vehicle: Klucel (hydroxypropylcellulose) (HPC)

## COc1ccc(-c2nnc(C)nc2-c2ccc(OC)cc2)cc1
dose: 50.0 mg/kg/injection, schedule: Q01DX005 (ip), vehicle: saline with Tween-80
  T/C: 96 % of control
dose: 100.0 mg/kg/injection, schedule: Q01DX005 (ip), vehicle: saline with Tween-80
  T/C: 106 % of control
dose: 200.0 mg/kg/injection, schedule: Q01DX005 (ip), vehicle: saline with Tween-80
  T/C: 100 % of control

## Oc1ccccc1C=NC1CCCCC1.Oc1ccccc1C=NC1CCCCC1.[Cu+2]
dose: 100.0 mg/kg/injection, schedule: Q01DX001 (ip), vehicle: saline sonified
  T/C: 90 % of control
dose: 200.0 mg/kg/injection, schedule: Q01DX001 (ip), vehicle: saline sonified
  T/C: 90 % of control
dose: 400.0 mg/kg/injection, schedule: Q01DX001 (ip), vehicle: saline sonified
  T/C: 109 % of control

## CCOC(=O)N/N=C\c1cc(OC)c(OC)c(OC)c1
dose: 6.25 mg/kg/injection, schedule: Q01DX009 (ip), vehicle: saline with Tween-80
  T/C: 95 % of control
dose: 12.5 mg/kg/injection, schedule: Q01DX009 (ip), vehicle: saline with Tween-80
  T/C: 90 % of control
dose: 25.0 mg/kg/injection, schedule: Q01DX009 (ip), vehicle: saline with Tween-80
  T/C: 90 % of control
dose: 50.0 mg/kg/injection, schedule: Q01DX009 (ip), vehicle: saline with Tween-80
  T/C: 90 % of control
dose: 50.0 mg/kg/injection, schedule: Q04DX003 (ip), vehicle: saline with Tween-80
  T/C: 100 % of control
dose: 100.0 mg/kg/injection, schedule: Q04DX003 (ip), vehicle: saline with Tween-80
  T/C: 108 % of control
dose: 200.0 mg/kg/injection, schedule: Q04DX003 (ip), vehicle: saline with Tween-80
  T/C: 104 % of control

## O/N=C\c1ccccc1
dose: 25.0 mg/kg/injection, schedule: Q01DX009 (ip), vehicle: Klucel (hydroxypropylcellulose) (HPC)
  T/C: 108 % of control
[1]
  T/C: 95 % of control
dose: 75.0 mg/kg/injection, schedule: Q04DX003 (ip), vehicle: saline with Tween-80
  T/C: 110 % of control
dose: 100.0 mg/kg/injection, schedule: Q01DX009 (ip), vehicle: Klucel (hydroxypropylcellulose) (HPC)
  T/C: 91 % of control
dose: 150.0 mg/kg/injection, schedule: Q04DX003 (ip), vehicle: saline with Tween-80
  T/C: 105 % of control

## CCOC(=O)C(C)C(O)(c1ccccc1)c1ccccc1 (centres undefined)
[2]
  T/C: 100 % of control
dose: 200.0 mg/kg/injection, schedule: Q04DX003 (ip), vehicle: Klucel (hydroxypropylcellulose) (HPC)
  T/C: 104 % of control
dose: 400.0 mg/kg/injection, schedule: Q04DX003 (ip), vehicle: Klucel (hydroxypropylcellulose) (HPC)
  T/C: 104 % of control

## CCCCCCCCCCCCCCCCCC[n+]1cccc(C(=O)N2CCOCC2)c1
dose: 1.0 mg/kg/injection, schedule: Q01DX009 (ip), vehicle: saline with Tween-80
  T/C: 108 % of control
dose: 2.0 mg/kg/injection, schedule: Q01DX009 (ip), vehicle: Klucel (hydroxypropylcellulose) (HPC)
  T/C: 100 % of control
dose: 2.0 mg/kg/injection, schedule: Q01DX009 (ip), vehicle: saline with Tween-80
  T/C: 95 % of control
dose: 4.0 mg/kg/injection, schedule: Q01DX009 (ip), vehicle: Klucel (hydroxypropylcellulose) (HPC)
  T/C: 90 % of control
dose: 4.0 mg/kg/injection, schedule: Q01DX009 (ip), vehicle: saline with Tween-80
  T/C: 100 % of control
dose: 8.0 mg/kg/injection, schedule: Q01DX009 (ip), vehicle: Klucel (hydroxypropylcellulose) (HPC)
  T/C: 109 % of control
dose: 8.0 mg/kg/injection, schedule: Q01DX009 (ip), vehicle: saline with Tween-80
  T/C: 108 % of control
dose: 16.0 mg/kg/injection, schedule: Q01DX009 (ip), vehicle: Klucel (hydroxypropylcellulose) (HPC)
  T/C: 104 % of control
dose: 16.0 mg/kg/injection, schedule: Q01DX009 (ip), vehicle: saline with Tween-80
  T/C: 121 % of control
dose: 25.0 mg/kg/injection, schedule: Q04DX003 (ip), vehicle: Klucel (hydroxypropylcellulose) (HPC)
  T/C: 100 % of control
dose: 32.0 mg/kg/injection, schedule: Q01DX009 (ip), vehicle: Klucel (hydroxypropylcellulose) (HPC)
  T/C: 113 % of control
dose: 50.0 mg/kg/injection, schedule: Q04DX003 (ip), vehicle: Klucel (hydroxypropylcellulose) (HPC)
  T/C: 109 % of control
[2]
  T/C: 90 % of control

## CCOc1ccc(Nc2c3ccccc3nc3ccccc23)cc1
dose: 0.39 mg/kg/injection, schedule: Q01DX009 (ip), vehicle: Klucel (hydroxypropylcellulose) (HPC)
  T/C: 110 % of control
dose: 0.78 mg/kg/injection, schedule: Q01DX009 (ip), vehicle: Klucel (hydroxypropylcellulose) (HPC)
  T/C: 114 % of control
dose: 1.56 mg/kg/injection, schedule: Q01DX009 (ip), vehicle: Klucel (hydroxypropylcellulose) (HPC)
  T/C: 96 % of control
[1]
  T/C: 159 % of control

## CCOC(=O)c1c[nH]c2cc(Cl)ccc2c1=O
dose: 75.0 mg/kg/injection, schedule: Q04DX003 (ip), vehicle: Klucel (hydroxypropylcellulose) (HPC)
  T/C: 96 % of control

From PubChem BioAssay AID328 (DTP/NCI, 2004)
